Data taken from patent publication US10358436B2, “Kinase inhibitors and method of treating cancer” (University Health Network, priority 2010, dated 2019).
Counter-ions that a name gives are not always drawn.

Biological target: Aurora A (Homo sapiens (Human), UniProt O14965)
Experiment: Aurora A inhibition assay (Z-Lyte)
Type: biochemical

Chain of Aurora A (O14965 whole entry): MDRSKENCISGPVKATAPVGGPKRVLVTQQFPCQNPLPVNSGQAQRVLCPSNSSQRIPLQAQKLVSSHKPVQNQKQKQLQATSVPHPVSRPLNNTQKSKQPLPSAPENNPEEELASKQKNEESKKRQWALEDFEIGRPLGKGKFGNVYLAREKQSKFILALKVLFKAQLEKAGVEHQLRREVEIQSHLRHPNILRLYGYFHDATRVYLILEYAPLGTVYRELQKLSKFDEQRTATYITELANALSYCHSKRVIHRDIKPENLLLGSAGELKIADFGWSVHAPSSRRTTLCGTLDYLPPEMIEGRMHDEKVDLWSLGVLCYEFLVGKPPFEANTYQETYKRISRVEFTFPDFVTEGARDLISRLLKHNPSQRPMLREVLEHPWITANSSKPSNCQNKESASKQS

Structure (SMILES)	inhibition at 1 µM [%]
COc1ccc2c(c1)[C@]1(C[C@H]1c1ccc3c(-c4ccc(C5CCNCC5)cc4)n[nH]c3c1)C(=O)N2 (relative stereo) [Example A122, (1R*,2S*)-5′-methoxy-2-(3-(4-(piperidin-4-yl)phenyl)-1H-indazol-6-yl)spiro[cyclopropane-1,3′-indolin]-2′-one 2,2,2-trifluoroacetate]	< 50
CN(C)Cc1ccc(/C=C/c2n[nH]c3cc([C@@H]4C[C@@]45C(=O)Nc4ccc(OC(F)F)cc45)ccc23)cc1 (relative stereo) [Example A214, (1R*,2S*)-(E)-5′-difluoromethoxy-2-(3-(4-((dimethylamino)methyl)styryl)-1H-indazol-6-yl)spiro[cyclopropane-1,3′-indolin]-2′-one 2,2,2-trifluoroacetate]	> 50
CN1C(=O)[C@@]2(C[C@H]2c2ccc3c(/C=C/c4ccc(CN5CCOCC5)cc4)n[nH]c3c2)c2ccccc21 (relative stereo) [Example A87, (1R*,2S*)-(E)-1′-methyl-2-(3-(4-(morpholinomethyl)styryl)-1H-indazol-6-yl)spiro[cyclopropane-1,3′-indolin]-2′-one 2,2,2-trifluoroacetate]	> 50
COc1ccc2c(c1)[C@]1(C[C@H]1c1ccc3c(-c4ccc(N5CCN(CCO)CC5)cc4)n[nH]c3c1)C(=O)N2 [Example A191, (1R,2S)-2-(3-(4-(4-(2-hydroxyethyl)piperazin-1-yl)phenyl)-1H-indazol-6-yl)-5′-methoxyspiro[cyclopropane-1,3′-indolin]-2′-one 2,2,2-trifluoroacetate]	< 50
O=C1Nc2ccccc2[C@]12C[C@H]2c1ccc2c(/C=C/c3ccc(N4CCNCC4)cc3)n[nH]c2c1 [Example A92, (1R,2S)-(E)-2-(3-(4-(piperazin-1-yl)styryl)-1H-indazol-6-yl)spiro[cyclopropane-1,3′-indolin]-2′-one bis(2,2,2-trifluoroacetate)]	> 50
CN1C(=O)[C@@]2(C[C@H]2c2ccc3c(/C=C/c4ccc(CN5CCCCC5)cc4)n[nH]c3c2)c2ccccc21 [Example A94, (1R,2S)-(E)-1′-methyl-2-(3-(4-(piperidin-1-ylmethyl)styryl)-1H-indazol-6-yl)spiro[cyclopropane-1,3′-indolin]-2′-one hydrochloride]	> 50
COc1ccc2c(c1)[C@]1(C[C@H]1c1ccc3c(-c4ccc(N5CCC(O)CC5)nc4)n[nH]c3c1)C(=O)N2 (relative stereo) [Example A117, (1R*,2S*)-2-(3-(6-(4-hydroxypiperidin-1-yl)pyridin-3-yl)-1H-indazol-6-yl)-S-methoxyspiro[cyclopropane-1,3′-indolin]-2′-one 2,2,2-trifluoroacetate]	< 50
COc1ccc2c(c1)[C@]1(C[C@H]1c1ccc3c(/C=C/c4ccc(N5CCN(C)CC5)cc4)n[nH]c3c1)C(=O)N2 [Example A175, (1R,2S)-(E)-5′-methoxy-2-(3-(4-(4-methylpiperazin-1-yl)styryl)-1H-indazol-6-yl)spiro[cyclopropane-1,3′-indolin]-2′-one 2,2,2-trifluoroacetate]	< 50

Second part, the compound after the results:

inhibition at 1 µM [%]	Structure (SMILES)
> 50	CC(C)(c1ccc(/C=C/c2n[nH]c3cc([C@@H]4C[C@@]45C(=O)Nc4ccccc45)ccc23)cc1)N1CCOCC1 [Example A80, (1R,2S)-(E)-2-(3-(4-(2-morpholinopropan-2-yl)styryl)-1H-indazol-6-yl)spiro[cyclopropane-1,3′-indolin]-2′-one 2,2,2-trifluoroacetate salt]
> 50	CN1CCc2cc(/C=C/c3n[nH]c4cc([C@@H]5C[C@@]56C(=O)Nc5ccccc56)ccc34)ccc2C1 [Example A74, (1R,2S)-2-(3-((E)-2-(2-methyl-1,2,3,4-tetrahydroisoquinolin-6-yl)vinyl)-1H-indazol-6-yl)spiro[cyclopropane-1,3′-indolin]-2′-one 2,2,2-trifluoroacetate salt]
> 50	COc1ccc2c(c1)[C@]1(CC1c1ccc3c(/C=C/c4ccc(N5CCN(C)CC5)nc4)n[nH]c3c1)C(=O)N2 (single isomer, unassigned) [Example A31, (1R*,2S*)-5′-methoxy-2-(3-((E)-2-(6-(4-methylpiperazin-1-yl)pyridin-3-yl)vinyl)-1H-indazol-6-yl)spiro[cyclopropane-1,3′-indolin]-2′-one]
< 50	COc1ccc2c(c1)[C@]1(C[C@H]1c1ccc3c(-c4ccc(N5CCN(C(C)C)CC5)cc4)n[nH]c3c1)C(=O)N2 (relative stereo) [Example A96, (1R*,2S*)-2-(3-(4-(4-isopropylpiperazin-1-yl)phenyl)-1H-indazol-6-yl)-5′-methoxyspiro[cyclopropane-1,3′-indolin]-2′-one]
< 50	COc1ccc2c(c1)C1(CC1c1ccc3c(I)n[nH]c3c1)C(=O)N2 (single isomer, unassigned) [Example A6, (1R*,2S*)- and (1R*,2R*)-2-(3-iodo-1H-indazol-6-yl)-5′-methoxyspiro-[cyclopropane-1,3′-indolin]-2′-one]
< 50	COc1ccc2c(c1)[C@]1(C[C@H]1c1ccc3c(-c4ccc(N5CCN(C6CCCC6)CC5)cc4)n[nH]c3c1)C(=O)N2 [Example A192, (1R,2S)-2-(3-(4-(4-cyclopentylpiperazin-1-yl)phenyl)-1H-indazol-6-yl)-5′-methoxyspiro[cyclopropane-1,3′-indolin]-2′-one 2,2,2-trifluoroacetate]
< 50	COc1ccc2c(c1)[C@]1(C[C@H]1c1ccc3c(-c4cccc(CN5CCCCC5)c4)n[nH]c3c1)C(=O)N2 (relative stereo) [Example A44, (1R*,2S*)-5′-methoxy-2-(3-(3-(piperidin-1-ylmethyl)phenyl)-1H-indazol-6-yl)spiro[cyclopropane-1,3′-indolin]-2′-one 2,2,2-trifluoroacetate]
> 50	COc1ccc2c(c1)[C@]1(C[C@H]1c1ccc3c(/C=C/c4ccc5c(c4)CN(C)CC5)n[nH]c3c1)C(=O)N2 [Example A64, (1R,2S)-5′-methoxy-2-(3-((E)-2-(2-methyl-1,2,3,4-tetrahydroisoquinolin-7-yl)vinyl)-1H-indazol-6-yl)spiro[cyclopropane-1,3′-indolin]-2′-one 2,2,2-trifluoroacetate salt]
< 50	Cc1ccc2c(c1)[C@]1(C[C@H]1c1ccc3c(-c4ccc(N5CCN(C)CC5)cc4)n[nH]c3c1)C(=O)N2 (relative stereo) [Example A173, (1R*,2S*)-5′-methyl-2-(3-(4-(4-methylpiperazin-1-yl)phenyl)-1H-indazol-6-yl)spiro[cyclopropane-1,3′-indolin]-2′-one 2,2,2-trifluoroacetate]
> 50	COc1ccc2c(c1)[C@]1(C[C@H]1c1ccc3c(/C=C/c4ccc(CN5CCCC5)cc4)n[nH]c3c1)C(=O)N2 [Example A83, (1R,2S)-(E)-5′-methoxy-2-(3-(4-(pyrrolidin-1-ylmethyl)styryl)-1H-indazol-6-yl)spiro[cyclopropane-1,3′-indolin]-2′-one 2,2,2-trifluoroacetate]
> 50	CN(C)Cc1ccc(/C=C/c2n[nH]c3cc([C@@H]4C[C@@]45C(=O)N(CC(N)=O)c4ccccc45)ccc23)cc1 (relative stereo) [Example A160, 2-((1R*,2S*)-(E)-2-(3-(4-((dimethylamino)methyl)styryl)-1H-indazol-6-yl)-2′-oxospiro[cyclopropane-1,3′-indoline]-1′-yl)acetamide 2,2,2-trifluoroacetate]
